Structures can show the parent of a compound that is named as a salt. Where two headings read alike, the source gives them in different places.
Biological target: T1, β-catenin/BCL9 PPI (Homo sapiens, UniProt P35222)
T1 construct: Wild-type full-length β-catenin were cloned into a pET-28b vector carrying a C-terminal 6×histidine; made in house; host or cells: Escherichia coli BL21 DE3 (β-catenin); BCL9 peptide chemically synthesized
T1 sequence (P35222 1-781): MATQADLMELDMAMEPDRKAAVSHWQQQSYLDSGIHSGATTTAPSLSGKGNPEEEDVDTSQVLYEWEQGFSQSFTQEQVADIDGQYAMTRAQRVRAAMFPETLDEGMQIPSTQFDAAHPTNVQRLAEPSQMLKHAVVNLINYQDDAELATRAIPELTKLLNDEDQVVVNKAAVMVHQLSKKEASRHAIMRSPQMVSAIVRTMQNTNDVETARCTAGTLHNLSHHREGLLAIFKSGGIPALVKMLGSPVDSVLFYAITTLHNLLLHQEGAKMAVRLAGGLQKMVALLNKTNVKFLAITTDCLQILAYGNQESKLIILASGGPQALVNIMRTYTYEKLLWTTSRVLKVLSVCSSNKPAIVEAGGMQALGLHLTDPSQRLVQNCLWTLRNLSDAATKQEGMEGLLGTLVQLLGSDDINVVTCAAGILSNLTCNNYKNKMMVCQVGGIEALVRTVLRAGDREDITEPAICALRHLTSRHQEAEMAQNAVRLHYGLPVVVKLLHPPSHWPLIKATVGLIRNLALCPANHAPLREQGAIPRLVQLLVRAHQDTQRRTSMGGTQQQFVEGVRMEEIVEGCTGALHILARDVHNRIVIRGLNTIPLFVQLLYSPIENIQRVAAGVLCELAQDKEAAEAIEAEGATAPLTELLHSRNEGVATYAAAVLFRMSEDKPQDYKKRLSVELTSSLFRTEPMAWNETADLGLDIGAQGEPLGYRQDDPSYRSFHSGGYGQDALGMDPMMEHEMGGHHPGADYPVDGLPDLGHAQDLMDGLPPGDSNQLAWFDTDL
Experiment: AlphaScreen competitive inhibition assay of the β-catenin/BCL9 PPI
Assay type: binding
Details: mean ± SD, triplicate, Ki derived from IC50 (Nikolovska-Coleska method)
Method: AlphaScreen competitive inhibition assays. For the competitive inhibition assays of the β-catenin/BCL9 PPI, the negative control (equivalent to 0% inhibition) refers to 5.0 nM of biotinylated BCL9, 40 nM of His6-tagged β-catenin, and 10 μg/mL of donor and acceptor beads in a final volume of 25 μL assay buffer, but no tested inhibitor present. The positive control (equivalent to 100% inhibition) refers to 5.0 nM of biotinylated BCL9 and 10 μg/mL of donor and acceptor beads in a final volume of 25 μL assay buffer.
For the β-catenin/BCL9 assay, 5 nM of biotinylated BCL9 and 40 nM of His6-tagged β-catenin were incubated in assay buffer at 4° C. for 30 min. Different concentrations of the tested inhibitor were added and incubated in 20 μL assay buffer at 4° C. for another 1 h. All of the above assay plates were covered and gently mixed on an orbital shaker. The donor and acceptor beads were then added to the plates to a final concentration of 10 μg/mL in 25 μL assay buffer. The mixture was incubated for 1 h at 4° C. before detection. The IC50 value was determined by nonlinear least-square analysis of GraphPad Prism 5.0. The Ki values were derived from the IC50 values using a method reported by Nikolovska-Coleska et al (Nikolovska-Coleska, Z.; Wang, R.; Fang, X.; Pan, H.; Tomita, Y.; Li, P.; Roller, P. P.; Krajewski, K.; Saito, N. G.; Stuckey, J. A.; Wang, S. Development and optimization of a binding assay for the XIAP BIR3 domain using fluorescence polarization. Anal. Biochem. 2004, 332, 261-273). The assays were conducted under the conditions required by Nikolovska-Coleska et al.'s equation for determining the Ki values. All of the experiments were performed in triplicate. The results were expressed as mean±standard deviation.

[1] = Example 2 compounds, experiment 1, read-out: Ki (μM ± SD) experiment 1
[2] = Example 2 compounds, experiment 2, read-out: Ki (μM ± SD) experiment 2
[3] = Example 1 compounds, experiment 3, read-out: Ki (μM ± SD) experiment 3
[4] = Example 1 compounds, experiment 4, read-out: Ki (μM ± SD) experiment 4

Compound	Ki [1] [µM]	Ki [2] [µM]	Ki [3] [µM]	Ki [4] [µM]
O=C(c1ccc(O[C@H]2CCNC2)c(C2CCCCC2)c1)N1CCC(Oc2cc(F)cc(N3CCNCC3)c2)CC1 [Compound 1, (S)-(3-cyclohexyl-4-(pyrrolidin-3-yloxy)phenyl) (4-(3-fluoro-5-(piperazin-1-yl)phenoxy)piperidin-1-yl) methanone dihydrochloride]	12.3 ± 1.74	25.4 ± 2.43		
O=C(c1ccc(O[C@H]2CCNC2)c(C2CCCCC2)c1)N1CCC(Oc2cc(F)cc(N3CCNCC3=O)c2)CC1 [Compound 2, (S)-1-(3-((1-(3-cyclohexyl-4-(pyrrolidin-3-yloxy)benzoyl)piperidin-4-yl)oxy)-5-fluorophenyl) piperazin-2-one dihydrochloride]	496 ± 39.7	> 90		
NCc1cn(Cc2cc(F)cc(OC3CCN(C(=O)c4ccc(O[C@H]5CCNC5)c(C5CCCCC5)c4)CC3)c2)nn1 [Compound 3, (S)-(4-(3-((4-(aminomethyl)-1H-1,2,3-triazol-1-yl)methyl)-5-fluorophenoxy)piperidin-1-yl) (3-cyclohexyl-4-(pyrrolidin-3-yloxy)phenyl) methanone dihydrochloride]	132 ± 9.82	124 ± 13.4		
CN(C)Cc1cn(Cc2cc(F)cc(OC3CCN(C(=O)c4ccc(O[C@H]5CCNC5)c(C5CCCCC5)c4)CC3)c2)nn1 [Compound 4, (S)-(3-cyclohexyl-4-(pyrrolidin-3-yloxy)phenyl) (4-(3-((4-((dimethylamino)methyl)-1H-1,2,3-triazol-1-yl)methyl)-5-fluorophenoxy)piperidin-1-yl) methanone dihydrochloride]	41.4 ± 4.33			
NCCC(=O)Nc1cc(F)cc(OC2CCN(C(=O)c3ccc(OC4CCNC4)c(C4CCCCC4)c3)CC2)c1 (centres unmarked) [Compound 5, 3-amino-N-(3-((1-(3-cyclohexyl-4-(pyrrolidin-3-yloxy)benzoyl)piperidin-4-yl)oxy)-5-fluorophenyl)propanamide dihydrochloride]	24.4 ± 3.18	25.9 ± 2.45		
NCCCC(=O)Nc1cc(F)cc(OC2CCN(C(=O)c3ccc(OC4CCNC4)c(C4CCCCC4)c3)CC2)c1 (centres unmarked) [Compound 6, 4-amino-N-(3-((1-(3-cyclohexyl-4-(pyrrolidin-3-yloxy)benzoyl)piperidin-4-yl)oxy)-5-fluorophenyl)butanamide dihydrochloride]	56.9 ± 8.34	24.2 ± 2.7		
NCCC(=O)NCc1cc(F)cc(OC2CCN(C(=O)c3ccc(O[C@H]4CCNC4)c(C4CCCCC4)c3)CC2)c1 [Compound 7, 3-Amino-N-(3-((1-(3-cyclohexyl-4-(pyrrolidin-3-yloxy)benzoyl)piperidin-4-yl)oxy)-5-fluorobenzyl) propanamide dihydrochloride]	84.7 ± 11.8	125 ± 13.2		
CC(C)(CN)C(=O)NCc1cc(F)cc(OC2CCN(C(=O)c3ccc(O[C@H]4CCNC4)c(C4CCCCC4)c3)CC2)c1 [Compound 8, (S)-3-amino-N-(3-((1-(3-cyclohexyl-4-(pyrrolidin-3-yloxy)benzoyl)piperidin-4-yl)oxy)-5-fluorobenzyl)-2,2-dimethylpropanamide dihydrochloride]	162 ± 19.6	162 ± 17.4		
CNC(=O)C1CN(C(=O)c2cc(F)cc(NC(C)=O)c2)CCN1C(=O)c1ccc(O[C@H]2CCNC2)c(C2CCCCC2)c1 (stereo partly drawn) [Compound 17, 4-(3-Acetamido-5-fluorobenzoyl)-1-(3-cyclohexyl-4-(((S)-pyrrolidin-3-yl)oxy)benzoyl)-N-methylpiperazine-2-carboxamide trifluoroacetate]			200 ± 20	140 ± 17
CC(=O)Nc1cc(F)cc(C(=O)N2CCN(C(=O)c3ccc(O[C@H]4CCNC4)c(C4CCCCC4)c3)C(C(=O)N(C)C)C2)c1 (stereo partly drawn) [Compound 18, 4-(3-Acetamido-5-fluorobenzoyl)-1-(3-cyclohexyl-4-(((S)-pyrrolidin-3-yl)oxy)benzoyl)-N,N-dimethylpiperazine-2-carboxamide trifluoroacetate]			73	150 ± 17
CCNC(=O)C1CN(C(=O)c2cc(F)cc(NC(C)=O)c2)CCN1C(=O)c1ccc(O[C@H]2CCNC2)c(C2CCCCC2)c1 (stereo partly drawn) [Compound 19, 4-(3-Acetamido-5-fluorobenzoyl)-1-(3-cyclohexyl-4-(((S)-pyrrolidin-3-yl)oxy)benzoyl)-N-ethylpiperazine-2-carboxamide trifluoroacetate]			110 ± 16	240 ± 27
CCN(C)C(=O)C1CN(C(=O)c2cc(F)cc(NC(C)=O)c2)CCN1C(=O)c1ccc(O[C@H]2CCNC2)c(C2CCCCC2)c1 (stereo partly drawn) [Compound 20, 4-(3-Acetamido-5-fluorobenzoyl)-1-(3-cyclohexyl-4-(((S)-pyrrolidin-3-yl)oxy)benzoyl)-N-ethyl-N-methylpiperazine-2-carboxamide trifluoroacetate]			190 ± 18	170 ± 29
CC(=O)Nc1cc(F)cc(C(=O)N2CCN(C(=O)c3ccc(O[C@H]4CCNC4)c(C4CCCCC4)c3)C(C(=O)NC(C)C)C2)c1 (stereo partly drawn) [Compound 21, 4-(3-Acetamido-5-fluorobenzoyl)-1-(3-cyclohexyl-4-(((S)-pyrrolidin-3-yl)oxy)benzoyl)-N-isopropylpiperazine-2-carboxamide trifluoroacetate]			410 ± 41	700 ± 73
CC(=O)Nc1cc(F)cc(C(=O)N2CCN(C(=O)c3ccc(O[C@H]4CCNC4)c(C4CCCCC4)c3)C(C(=O)N(C)C(C)C)C2)c1 (stereo partly drawn) [Compound 22, 4-(3-Acetamido-5-fluorobenzoyl)-1-(3-cyclohexyl-4-(((S)-pyrrolidin-3-yl)oxy)benzoyl)-N-isopropyl-N-methylpiperazine-2-carboxamide trifluoroacetate]			> 1000	> 1000
CC(=O)Nc1cc(F)cc(C(=O)N2CCN(C(=O)c3ccc(O[C@H]4CCNC4)c(C4CCCCC4)c3)C(C(=O)NCC(C)C)C2)c1 (stereo partly drawn) [Compound 23, 4-(3-Acetamido-5-fluorobenzoyl)-1-(3-cyclohexyl-4-(((S)-pyrrolidin-3-yl)oxy)benzoyl)-N-isobutylpiperazine-2-carboxamide trifluoroacetate]			> 1000	> 1000
CC(=O)Nc1cc(F)cc(C(=O)N2CCN(C(=O)c3ccc(O[C@H]4CCNC4)c(C4CCCCC4)c3)C(C(=O)NCCC(C)C)C2)c1 (stereo partly drawn) [Compound 24, 4-(3-Acetamido-5-fluorobenzoyl)-1-(3-cyclohexyl-4-(((S)-pyrrolidin-3-yl)oxy)benzoyl)-N-isopentylpiperazine-2-carboxamide trifluoroacetate]			700 ± 130	540 ± 71
CC(=O)Nc1cc(F)cc(C(=O)N2CCN(C(=O)c3ccc(O[C@H]4CCNC4)c(C4CCCCC4)c3)C(C(=O)NC3CCCCC3)C2)c1 (stereo partly drawn) [Compound 25, 4-(3-Acetamido-5-fluorobenzoyl)-N-cyclohexyl-1-(3-cyclohexyl-4-(((S)-pyrrolidin-3-yl)oxy)benzoyl) piperazine-2-carboxamide trifluoroacetate]			390 ± 78	> 1000
CC(=O)Nc1cc(F)cc(C(=O)N2CCN(C(=O)c3ccc(O[C@H]4CCNC4)c(C4CCCCC4)c3)C(C(=O)NCC3CCCCC3)C2)c1 (stereo partly drawn) [Compound 26, 4-(3-Acetamido-5-fluorobenzoyl)-1-(3-cyclohexyl-4-(((S)-pyrrolidin-3-yl)oxy)benzoyl)-N-(cyclohexylmethyl) piperazine-2-carboxamide trifluoroacetate]			410 ± 56	770 ± 140

From patent US12600710B2, “Beta-catenin and b-cell lymphoma 9 (BCL9) inhibitors” (H. LEE MOFFITT CANCER CENTER AND RESEARCH INSTITUTE, INC., priority 2018, dated 2026)
